Legend:
WT EGFR (Wild-Type EGFR) = molecular target: T1, WT EGFR (Wild-Type EGFR) (Homo sapiens, UniProt P00533); test: Inhibition of WT EGFR kinase activity (ADP-Glo); assay type: biochemical
T1 construct: purchased SignalChem
In short: (§1)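 Luminescent ADP-Glo readout was used for both wild-type and L858R/T790M EGFR, each run 180 minutes at 37° C. Reactions used a solution of 50 μM ATP with 0.5 mg/mL peptide substrate. Four-parameter logistic curves gave IC50.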

[1] = Enzyme stability in human liver S9 fractions; assay type: in vitro ADME; settings: 0.5 mg/mL pooled human liver S9 fractions; 10 μM compound; 37° C.; pH 7.4; read-out: Stability in liver S9 fractions, Clint
In short: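 Compound at 10 μM was incubated at 37 °C with 0.5 mg/mL pooled human liver S9, 2 mM β-NAD and 4 mM MgCl2 in 0.1 M sodium phosphate, pH 7.4, then quenched with acetonitrile and analysed chromatographically. T½ and CLint were derived from the slope of log peak area versus time.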

[2] = molecular target: T2, DM EGFR (DoubleMutantEGFR, L828R/T790M) (Homo sapiens, UniProt P00533, L858R/T790M); test: Inhibition of DM EGFR kinase activity (ADP-Glo); assay type: biochemical; settings: for IC50: inhibition of kinase activity, EGFR DM (L828R/T790M); for SI, IC50(WT)/IC50(DM): selectivity index, kinase EGFR WT vs EGFR DM
T2 construct: purchased SignalChem
In short: as §1

[3] = tested on: A549 (lung adenocarcinoma, WT); test: Antiproliferative activity on A549 cells (Alamar Blue); assay type: cell-based; settings: Homo sapiens, antiproliferative test
In short: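 Viability read by Alamar Blue fluorescence (λEx 540, λEm 590 nm) 3-5 h after dye addition, following 72 h compound treatment at 37° C in 2% FBS RPMI-1640, ≤1% DMSO. Seeding 5*10^3 cells/well, 16-18 h attachment. Four-parameter logistic model gave IC50.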

HepG2 cells = test: General cytotoxicity on HepG2 cells; assay type: cell-based; settings: therapeutic index, CC50 HepG2 / IC50 H1975
In short: (§2)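 HepG2 cells seeded at 2*10^4 cells per well and compounds added in DMEM with 2% FBS for 72 h at 37 °C. Viability read with Alamar Blue and CC50 derived as for IC50. Therapeutic index taken as HepG2 CC50 over H1975 IC50.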

[4] = General cytotoxicity on HepG2 cells; assay type: cell-based; settings: human; general cytotoxicity, HepG2 cells, 72 hours, average of several tests
In short: as §2

SMILES | IC50 (WT EGFR (Wild-Type EGFR)) [nM] | Intrinsic clearance in human liver S9 fractions at 10 µM [1] [µL/min/mg] | IC50 [2] [nM] | SI, IC50(WT)/IC50(DM) [2] | IC50 [3] [nM] | TI, CC50/IC50 (HepG2 cells) | CC50 at 72 h [4] [nM]
C=CC(=O)Nc1cc(Nc2nccc(C(=O)c3ccc(F)cc3)n2)c(OC)cc1N(C)CCN(C)C [EGFR_3365_10, N-(2-((2-(dimethylamino)ethyl)(methyl)amino)-5-((4-(4-fluorobenzoyl)pyrimidin-2-yl)amino)-4-methoxyphenyl) acrylamide] | 211 | 6.8 | 7.28 | 29.06 | 13200 | 144 | 30400
C=CC(=O)Nc1cc(Nc2nccc(C(=O)c3ccc(OCCCC)cc3)n2)c(OC)cc1N(C)CCN(C)C [EGFR_3365_66, N-(5-((4-(4-butoxybenzoyl)pyrimidin-2-yl)amino)-2-((2-(dimethylamino)ethyl)(methyl)amino)-4-methoxyphenyl)acrylamide] | 46.8 | 1.3 | 1.86 | 25.13 | 4640 | 278 | 9640
C=CC(=O)Nc1cc(Nc2nccc(C(=O)c3ccc(OCCC)cc3OCCC)n2)c(OC)cc1N(C)CCN(C)C [EGFR_3365_70, N-(2-((2-(dimethylamino)ethyl)(methyl)amino)-5-((4-(2,4-dipropoxybenzoyl)pyrimidin-2-yl)amino)-4-methoxyphenyl)acrylamide] | 250 | 0.7 | 14.7 | 16.96 | 4390 | 56 | 11500
C=CC(=O)Nc1cc(Nc2nccc(C(=O)c3ccc(N(CC)CC)cc3)n2)c(OC)cc1N(C)CCN(C)C [EGFR_3365_72, N-(5-((4-(4-(diethylamino)benzoyl)pyrimidin-2-yl)amino)-2-((2-(dimethylamino)ethyl)(methyl)amino)-4-methoxyphenyl)acrylamide] | 55.9 | 20.2 | 3.71 | 15.09 | 10700 | 1408 | 16200
C=CC(=O)Nc1cc(Nc2nccc(C(=O)c3ccc(N(C)C)cc3)n2)c(OC)cc1N(C)CCN(C)C [EGFR_3365_73, N-(5-((4-(4-(dimethylamino)benzoyl)pyrimidin-2-yl)amino)-2-((2-(dimethylamino)ethyl) (methyl)amino)-4-methoxyphenyl)acrylamide] | 32.7 | 11.1 | 2.35 | 13.89 | 16000 | 3465 | 35600
C=CC(=O)Nc1cc(Nc2nccc(C(=O)c3ccccc3C(F)(F)F)n2)c(OC)cc1N(C)CCN(C)C [EGFR_3365, N-(2-((2-(dimethylamino)ethyl) (methyl)amino)-4-methoxy-5-((4-(2-(trifluoromethyl)benzoyl)pyrimidin-2-yl)amino)phenyl)acrylamide] | 587 | 13.6 | 22 | 26.69 | > 10000 | 423 | 25400
C=CC(=O)Nc1cc(Nc2nccc(C(=O)c3ccc(OC)cc3OC)n2)c(OC)cc1N(C)CCN(C)C [EGFR_3365_69, N-(5-((4-(2,4-dimethoxybenzoyl)pyrimidin-2-yl)amino)-2-((2-(dimethylamino)ethyl)(methyl)amino)-4-methoxyphenyl)acrylamide] | 23.6 | 14.4 | 2.59 | 9.12 | > 10000 | 6549 | 51900
C=CC(=O)Nc1cc(Nc2nccc(C(=O)c3ccc(Oc4ccccc4)cc3)n2)c(OC)cc1N(C)CCN(C)C [EGFR_3365_17, N-(2-((2-(dimethylamino)ethyl)(methyl)amino)-4-methoxy-5-((4-(4-phenoxybenzoyl)pyrimidin-2-yl)amino)phenyl)acrylamide] | 171 | 10.9 | 21.5 | 7.95 | 2390 | 16 | 6320
C=CC(=O)Nc1cc(Nc2nccc(C(=O)c3ccc(OC)cc3OCCC)n2)c(OC)cc1N(C)CCN(C)C [EGFR_3365_102, N-(2-((2-(dimethylamino)ethyl)(methyl)amino)-4-methoxy-5-((4-(4-methoxy-2-propoxybenzoyl)pyrimidin-2-yl)amino)phenyl)acrylamide] | 206 | 21.9 | 11.2 | 18.40 | 5570 | 342 | 27500

Now from value to compound, other results behind:

IC50 (WT EGFR (Wild-Type EGFR)) [nM] | Intrinsic clearance in human liver S9 fractions at 10 µM [1] [µL/min/mg] | IC50 [2] [nM] | SI, IC50(WT)/IC50(DM) [2] | IC50 [3] [nM] | SMILES | TI, CC50/IC50 (HepG2 cells) | CC50 at 72 h [4] [nM]
183 | 10.1 | 7.31 | 25.06 | 8240 | C=CC(=O)Nc1cc(Nc2cc(C(=O)c3ccc(N4CC(OC)C4)cc3)ccn2)c(OC)cc1N(C)CCN(C)C (racemic) [EGFR_3365_53, N-(2-((2-(dimethylamino)ethyl)(methyl)amino)-4-methoxy-5-((4-(4-(3-methoxyazetidin-1-yl)benzoyl)pyridin-2-yl)amino)phenyl)acrylamide] | 457 | 20600
76.6 | 5 | 25.4 | 3.02 | 11600 | C=CC(=O)Nc1cc(Nc2cc(C(=O)c3ccc(N4CCN(C)CC4)cc3)ccn2)c(OC)cc1N(C)CCN(C)C [EGFR_3365_55, N-(2-((2-(dimethylamino)ethyl)(methyl)amino)-4-methoxy-5-((4-(4-(4-methylpiperazin-1-yl)benzoyl)pyridin-2-yl)amino)phenyl)acrylamide] | 63 | 13300
50.8 | 16.2 | 4.72 | 10.75 | 11500 | C=CC(=O)Nc1cc(Nc2cc(C(=O)c3ccc(OC)cc3)ccn2)c(OC)cc1N(C)CCN(C)C [EGFR_3365_51, N-(2-((2-(dimethylamino)ethyl)(methyl)amino)-4-methoxy-5-((4-(4-methoxybenzoyl)pyridin-2-yl)amino)phenyl)acrylamide] | 620 | 20900
67.9 | 16.6 | 6.41 | 10.58 | 10800 | C=CC(=O)Nc1cc(Nc2cc(C(=O)c3ccc(OCC)cc3)ccn2)c(OC)cc1N(C)CCN(C)C [EGFR_3365_52, N-(2-((2-(dimethylamino)ethyl)(methyl)amino)-5-((4-(4-ethoxybenzoyl)pyridin-2-yl)amino)-4-methoxyphenyl) acrylamide] | 237 | 15600
39.7 | 17.7 | 2.36 | 16.81 | > 10000 | C=CC(=O)Nc1cc(Nc2nccc(C(=O)c3ccc(N4CCC4)cc3)n2)c(OC)cc1N(C)CCN(C)C [EGFR_3365_58, N-(5-((4-(4-(azetidin-1-yl)benzoyl)pyrimidin-2-yl)amino)-2-((2-(dimethylamino)ethyl)(methyl)amino)-4-methoxyphenyl)acrylamide] | 4241 | 44400
230 | 0.9 | 21.4 | 10.79 | 5380 | C=CC(=O)Nc1cc(Nc2cc(C(=O)c3ccc(N(C)C)cc3)ccn2)c(OC)cc1N(C)CCN(C)C.O=C(O)C(F)(F)F [EGFR_3365_4, N-(5-((4-(4-(dimethylamino)benzoyl)pyridin-2-yl)amino)-2-((2-(dimethylamino)ethyl) (methyl)amino)-4-methoxyphenyl)acrylamide 2,2,2-trifluoroacetate] | 419 | 14800
21.6 | 1.4 | 0.89 | 24.30 | 8350 | C=CC(=O)Nc1cc(Nc2nccc(C(=O)c3ccc(N4CCC(N)CC4)cc3)n2)c(OC)cc1N(C)CCN(C)C [EGFR_3365_121, N-(5-((4-(4-(4-aminopiperidin-1-yl)benzoyl)pyrimidin-2-yl)amino)-2-((2-(dimethylamino)ethyl)(methyl)amino)-4-methoxyphenyl)acrylamide] | 17832 | 75100
